Measured values as given in PubChem BioAssay AID1611 (NINDS Approved Drug Screening Program, 2009).

Each compound was assayed on human cells, HSE-luciferase heat shock reporter (assay: inducers of human heat shock response, cell-based, HSE luciferase (AID 1611)). Conditions: measured here: HSE reporter induction potency.

SMILES	EC50
CC(=O)O[C@]1(C(C)=O)CCC2C3C=C(Cl)C4=CC(=O)[C@@H]5C[C@@H]5[C@]4(C)C3CC[C@@]21C (stereo partly specified)	4.7 µM
CC(COc1ccccc1)NC(C)[C@H](O)c1ccc(O)cc1 (stereo partly specified)	4.3 µM
C[C@H]1O[C@@H](O[C@H]2[C@@H](O)C[C@H](O[C@H]3[C@@H](O)C[C@H](O[C@H]4CC[C@]5(C)C6CC[C@]7(C)[C@@H](C8=CC(=O)OC8)CC[C@]7(O)C6CC[C@@H]5C4)O[C@@H]3C)O[C@@H]2C)C[C@H](O)[C@@H]1O (stereo partly specified)	4 µM
O=C1c2ccccc2C(=O)C1c1ccccc1	4.6 µM
Cc1ccc(C(=O)c2ccc(CC(=O)O)n2C)cc1	5 µM
CC[C@H]1OC(=O)[C@H](C)[C@@H](O[C@H]2C[C@@](C)(OC)[C@@H](O)[C@H](C)O2)[C@H](C)[C@@H](O[C@@H]2O[C@H](C)C[C@H](N(C)C)[C@H]2O)[C@](C)(O)C[C@@H](C)CN(C)[C@H](C)[C@@H](O)[C@]1(C)O	4.6 µM
